This is an account of results in patent US12551463B2, “Dosing of a Bruton's tyrosine kinase inhibitor” (Loxo Oncology, Inc., priority 2019, dated 2026).

Structures are written as SMILES. Where two headings read alike, the source gives them in different places.

One assay concerns REC-1 cells. Description: In vivo mouse xenograft study, REC-1. Also noted: species or system mice. As to conditions: BTK-I BID alone; BTK WT driven REC-1 (MCL) xenograft. How it is done: In all studies, test articles are administered alone and in combination, following different dosing regimens.
Human TMD8 BTK WT, TMD8 BTK C481S or REC-1 cells are injected subcutaneously in the right flank of mice. When tumors reach a mean volume between 150 mm^3 and 400 mm^3, mice are randomized based on their tumor volumes. Mice are next dosed for 14 to 23 days depending on the study design. The potencies of the compounds stand-alone or in combination on the inhibition of the tumor growth are assessed based on the tumor volume changes and weights after collection at the end of the study. Additionally, in the TMD8 studies, the plasma concentrations of test articles are measured at multiple time points after the last dose.

The target in the next assay is T1, BTK wild type (Homo sapiens, UniProt Q06187).
T1 construct: expressed in transfected cells
Description: BTK Y223 autophosphorylation in HEK293 cells expressing BTK wild type. The class given is cell-based. To be noted: for IC90: HEK293, wild type BTK. How it is done: HEK293 cell lines stably expressing BTK wild type and the mutant form C481S are generated using standard transfection methods. For assessment of cellular inhibition potency, cells are grown in DMEM+10% FBS+1 μg/mL puromycin (complete growth media) at 37° C. in a C02 incubator. Cells are harvested according to standard protocols using TrypLE (Gibco #12604-013), counted, resuspended in complete growth media, and added to 6 well assay plates at […] in 2 mL. Plates are incubated overnight at 37° C. with 5% C02. The following day, cells are treated for 2 hours with BTK-I, prepared as a 6-point dose curve, 1:3 dilution series with final concentrations starting at a maximum concentration of 300 nM and a constant DMSO concentration of 0.5% (v/v). Control wells contain 0.5% (v/v) DMSO alone (no inhibition control). All samples are tested in triplicate. Following compound incubation, growth medium is discarded, cells are washed with DPBS (1×) (Gibco #14190-144) and lysed in 1 mL of CelLytic™ M (Sigma #C2978) containing 1× Halt phosphatase and protease inhibitor cocktails (Pierce #78442). Plates are placed on ice for 1 hour with gentle agitation and stored at −80° C. overnight. The next day, cell lysates are placed in 1.5 mL tubes and cleared by centrifugation at 16,000×g for 10 minutes at 4° C. Supernatants are quantified by BCA (Pierce #23225) and stored at −80° C. Samples are analyzed by Simple Western (Protein Simple) with anti-phospho-BTK (Y223) (Cell signaling technologies (cst) #5082) and anti-BTK (cst #8547). β-actin is the used as a loading control and detected by regular Western blot with an anti-β-actin antibody (cst #4970). Simple Western results are analyzed with Compass software (Protein Simple). BTK Y223 phosphorylation signal is normalized to total BTK, and IC50 values are calculated using a 4-parameter fit in GraphPad Prism 7.04 software.

In assay [1] the test system is Waldenstrom's macroglobulinemia. Description: Phase 1/2 clinical study, Waldenstrom's macroglobulinemia patients. The assay is classed as in vivo, human. An excerpt: (§1) The study is an open-label, multi-center study of oral BTK-I to evaluate safety and efficacy as monotherapy and as part of combination therapy in patients with CLL/SLL and NHL who have failed or are intolerant to standard of care. This study includes monotherapy as well as combination treatment parts. The monotherapy part includes Phase 1 dose escalation and dose expansion as well as Phase 2. The combination therapy part is a Phase 1b (safety assessment and expansion) of BTK-I in combination with venetoclax, with or without anti-CD20 therapy. Phase 1 dose escalation will proceed prior to start of Phase 1b or Phase 2. Once a recommended Phase 2 dose (RP2D) is identified in Phase 1, enrollment can commence to the Phase 1b combination therapies and Phase 2 monotherapy cohorts.
The primary objectives of the Phase 1 Dose Escalation and Expansion part of the study is to determine the maximum tolerated dose (MTD)/RP2D of oral BTK-I in patients with previously treated CLL/SLL and B-cell NHL.
Patients are enrolled with histologically confirmed CLL/SLL or B-cell NHL who have failed or are intolerant to at least two prior standard of care regimens given in combination or sequentially or have received at least one prior BTK inhibitor-containing regimen when BTK inhibitor is approved in first line.
BTK-I is administered in oral tablet form. Dose escalation will follow a 3+3 design starting with a 25 mg QD dose (followed by 50 mg QD (dose level cohort 2), 100 mg QD (dose level cohort 3), 150 mg QD (dose level cohort 4), 200 mg QD (dose level cohort 5), 250 mg QD (dose level cohort 6), and 300 mg QD (dose level cohort 7)). Cycle length will be 28 days. The drug limiting toxicity (DLT) period will be 28 days, commencing with the first dose of BTK-I.
The primary objective of the Phase 2 is to assess the primary anti-tumor activity of BTK-I based on overall response rate (ORR) and as assessed by the Independent Review Committee.
At the RP2D up to ˜600 patients with CLL/SLL or NHL will be enrolled to one of the following cohorts: • Cohort 1: Non-blastoid MCL patients treated with a prior BTK-inhibitor. • Cohort 2: CLL/SLL patients treated with 2 or more prior regimens, including a BTK inhibitor-containing regimen. • Cohort 3: CLL/SLL patients with no prior therapy. • Cohort 4: CLL/SLL patients treated with prior therapy, BTK inhibitor naive. • Cohort 5: WM patients treated with a prior BTK inhibitor containing regimen. • Cohort 6: MZL patients treated with a prior BTK inhibitor containing regimen. • Cohort 7: (Not otherwise specified) defined as CLL/SLL or NHL not otherwise specified in Cohorts 1 through 6, inclusive of CLL/SLL or NHL, Richter's transformation, blastoid MCL, and patients with history of CNS involvement or primary CNS lymphoma.
Dosing during Phase 2 will be at the RP2D of 200 mg QD. The cycle length will be 28 days. BTK-I will be administered to the Phase 2 patients in oral tablet form at the RP2D. The dose (and schedule) chosen for Phase 2 may be changed by the SRC based on emerging data (e.g., PK, safety, and/or efficacy) as long as the new dose is not greater than the highest dose that has a DLT <33% and is determined to be safe by the SRC in Phase 1. If the RP2D is changed based on emerging data, patients enrolled to Phase 2 at a different dose may have the dose changed to the new dose.

For another assay, the system named is follicular lymphoma. Description: Phase 1/2 clinical study, follicular lymphoma patients. The class given is in vivo, human. As to conditions: among 8 efficacy-evaluable patients.
Description: as §1, with “cohorts. […]” for “cohorts.”
The primary objective of the Phase 2 is to assess the primary anti-tumor activity of BTK-I based on overall response rate (ORR) and as assessed by the Independent Review Committee. […]
Dosing during Phase 2 will be at the RP2D of 200 mg QD. […] The dose (and schedule) chosen for Phase 2 may be changed by the SRC based on emerging data (e.g., PK, safety, and/or efficacy) as long as the new dose is not greater than the highest dose that has a DLT <33% and is determined to be safe by the SRC in Phase 1. […]

[2] abbreviates: of 13 with prior covalent BTK inhibitor.

T1 sequence (Q06187 whole entry): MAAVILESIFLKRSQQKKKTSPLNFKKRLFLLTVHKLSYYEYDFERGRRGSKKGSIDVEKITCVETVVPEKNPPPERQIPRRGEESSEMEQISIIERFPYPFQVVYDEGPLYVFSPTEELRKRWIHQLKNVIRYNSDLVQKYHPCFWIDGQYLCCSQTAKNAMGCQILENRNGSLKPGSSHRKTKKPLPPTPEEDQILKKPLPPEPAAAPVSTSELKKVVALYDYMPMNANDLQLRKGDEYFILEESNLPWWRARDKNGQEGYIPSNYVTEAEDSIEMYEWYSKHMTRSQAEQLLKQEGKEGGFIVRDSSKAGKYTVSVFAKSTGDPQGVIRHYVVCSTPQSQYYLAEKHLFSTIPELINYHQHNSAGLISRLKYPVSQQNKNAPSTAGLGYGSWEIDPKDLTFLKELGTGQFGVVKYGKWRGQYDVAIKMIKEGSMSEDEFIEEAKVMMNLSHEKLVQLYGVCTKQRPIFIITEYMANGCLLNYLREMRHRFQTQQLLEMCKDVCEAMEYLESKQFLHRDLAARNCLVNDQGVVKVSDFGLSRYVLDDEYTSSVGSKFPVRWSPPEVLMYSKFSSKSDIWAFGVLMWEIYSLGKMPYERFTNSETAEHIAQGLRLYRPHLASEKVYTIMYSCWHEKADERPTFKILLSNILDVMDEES

Broadly, the IC90 is the point of the concentration-response curve where the effect stands at 90%. By IC50 is commonly meant the concentration at which inhibition is half-maximal. Regarding `COc1ccc(F)cc1C(=O)NCc1ccc(-c2nn([C@@H](C)C(F)(F)F)c(N)c2C(N)=O)cc1` [BTK-I, (S)-5-amino-3-(4-((5-fluoro-2-methoxybenzamido)methyl)phenyl)-1-(1,1,1-trifluoropropane-2-yl)-1H-pyrazole-4-carboxamide], in the assay with REC-1 cells, the “inhibition of xenograft tumor growth” value is “potently inhibited the growth”. The IC90 on BTK wild type (read-out: IC90) is 0.0774 µM; at BTK wild type (read-out: IC90 translated to total drug in human plasma), approximately 0.806 mg/L. The IC50 on BTK wild type (expressed as plasma concentration, read-out: IC50, inhibition of BTK in vitro) was 0.192 µM. Further, the ORR in assay [1] (13 patients with prior covalent BTK inhibitor) stood at 69%; in assay [1] (19 efficacy-evaluable WM patients), 68%. Further, the WM responders ongoing entry in assay [1] (median follow-up 4.6 months) is “Ten of 13”. In addition, the “MR, patients” value in assay [1] (setting [2]) amounted to 4. Besides, the “PR, patients” value in assay [1] (setting [2]) came out at 5; in assay [1] (of 19 efficacy-evaluable), 9. In addition, the “minor response (MR), patients” value in assay [1] (of 19 efficacy-evaluable) turned out to be 4. Moreover, the patients with responses in the assay with follicular lymphoma was 4.
